Laboratory results from patent publication US9169254B2, “Spiroimidazolone derivative” (Chugai Seiyaku Kabushiki Kaisha, priority 2009, dated 2015).

molecular target: T1, human PTH1 receptor (Homo sapiens, UniProt Q03431); assay: In vitro cAMP signal activity in HKRK-B7 cells (LLC-PK1 cells overexpressing the human PTH1 receptor); assay type: cell-based; conditions: HKRK-B7 cells; compound at 1×10^−3 M; cAMP produced as percentage of that produced by hPTH(1-34) at 100 nM
T1 sequence (Q03431 27-593): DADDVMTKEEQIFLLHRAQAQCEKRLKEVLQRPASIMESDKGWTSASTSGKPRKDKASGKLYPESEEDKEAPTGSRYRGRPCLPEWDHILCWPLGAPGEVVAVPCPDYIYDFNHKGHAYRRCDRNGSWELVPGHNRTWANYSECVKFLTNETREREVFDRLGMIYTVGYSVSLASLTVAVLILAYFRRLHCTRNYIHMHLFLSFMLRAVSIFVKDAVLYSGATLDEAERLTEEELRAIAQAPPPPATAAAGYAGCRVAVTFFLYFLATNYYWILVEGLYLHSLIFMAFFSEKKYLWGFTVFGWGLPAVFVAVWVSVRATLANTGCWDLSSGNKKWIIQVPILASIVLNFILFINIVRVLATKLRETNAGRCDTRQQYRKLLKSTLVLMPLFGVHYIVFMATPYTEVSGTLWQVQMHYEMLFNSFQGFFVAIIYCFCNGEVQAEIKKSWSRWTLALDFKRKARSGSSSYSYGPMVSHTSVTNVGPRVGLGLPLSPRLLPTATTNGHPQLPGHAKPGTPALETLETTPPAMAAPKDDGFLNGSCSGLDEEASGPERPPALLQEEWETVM

Row | SMILES | cAMP production activity (%)
1 | Cc1cc(C(=O)N2CCC(O)(CF)CC2)cc(C)c1/C=C/S(=O)(=O)N1CCC2(CC1)N=C(c1ccc(OC(F)(F)F)c(OCCCC(F)(F)F)c1)NC2=O [Compound 1273, 8-{(E)-2-[4-(4-fluoromethyl-4-hydroxy-piperidine-1-carbonyl)-2,6-dimethyl-phenyl]-ethenesulfonyl}-2-[3-(4,4,4-trifluoro-butoxy)-4-trifluoromethoxy-phenyl]-1,3,8-triaza-spiro[4.5]dec-1-en-4-one] | 81
2 | Cc1cc(C(=O)N2CCC(O)(CF)CC2)cc(C)c1CCS(=O)(=O)N1CCC2(CC1)N=C(c1ccc3c(c1)OC(F)(F)O3)NC2=O [Compound 1275, 2-(2,2-difluoro-benzo[1,3]dioxol-5-yl)-8-{2-[4-(4-fluoromethyl-4-hydroxy-piperidine-1-carbonyl)-2,6-dimethyl-phenyl]-ethanesulfonyl}-1,3,8-triaza-spiro[4.5]dec-1-en-4-one] | 89
3 | Cc1cc(C(=O)N2CCC(O)(CF)CC2)cc(C)c1CCS(=O)(=O)N1CCC2(CC1)N=C(c1ccc(OC(F)(F)F)cc1)NC2=O [Compound 1276, 8-{2-[4-(4-fluoromethyl-4-hydroxy-piperidine-1-carbonyl)-2,6-dimethyl-phenyl]-ethanesulfonyl}-2-(4-trifluoromethoxy-phenyl)-1,3,8-triaza-spiro[4.5]dec-1-en-4-one] | 140
4 | Cc1cc(C(=O)N2CCC(O)(CF)CC2)cc(C)c1CCS(=O)(=O)N1CCC2(CC1)N=C(c1ccc(C(F)(F)F)c(Cl)c1)NC2=O [Compound 1278, 2-(3-chloro-4-trifluoromethyl-phenyl)-8-{2-[4-(4-fluoromethyl-4-hydroxy-piperidine-1-carbonyl)-2,6-dimethyl-phenyl]-ethanesulfonyl}-1,3,8-triaza-spiro[4.5]dec-1-en-4-one] | 95

Continued, values first:

Row | cAMP production activity (%) | SMILES
5 | 71 | [2H]C([2H])([2H])C([2H])([2H])Oc1cc(C2=NC3(CCN(S(=O)(=O)/C=C/c4c(C)cc(C(=O)N5CCC(O)(CF)CC5)cc4C)CC3)C(=O)N2)ccc1F [Compound 1272, 2-(3-[1,1,2,2,2-^2H5]ethoxy-4-fluoro-phenyl)-8-{(E)-2-[4-(4-fluoromethyl-4-hydroxy-piperidine-1-carbonyl)-2,6-dimethyl-phenyl]-ethenesulfonyl}-1,3,8-triaza-spiro[4.5]dec-1-en-4-one]
6 | 81 | Cc1cc(C(=O)N2CCC(O)(CF)CC2)cc(C)c1/C=C/S(=O)(=O)N1CCC2(CC1)N=C(c1ccc(C(F)(F)F)c(OCC(F)(F)C(F)F)c1)NC2=O [Compound 1274, 8-{(E)-2-[4-(4-fluoromethyl-4-hydroxy-piperidine-1-carbonyl)-2,6-dimethyl-phenyl]-ethenesulfonyl}-2-[3-(2,2,3,3-tetrafluoro-propoxy)-4-trifluoromethyl-phenyl]-1,3,8-triaza-spiro[4.5]dec-1-en-4-one]
7 | 95 | Cc1cc(C2=NC3(CCN(S(=O)(=O)CCc4c(C)cc(C(=O)N5CCC(O)(CF)CC5)cc4C)CC3)C(=O)N2)ccc1C(F)(F)F [Compound 1277, 8-{2-[4-(4-fluoromethyl-4-hydroxy-piperidine-1-carbonyl)-2,6-dimethyl-phenyl]-ethanesulfonyl}-2-(3-methyl-4-trifluoromethyl-phenyl)-1,3,8-triaza-spiro[4.5]dec-1-en-4-one]
8 | 113 | Cc1cc(C(=O)N2CCC(O)(CF)CC2)cc(C)c1CCS(=O)(=O)N1CCC2(CC1)N=C(c1ccc(C(F)(F)F)c(OCC(F)(F)C(F)F)c1)NC2=O [Compound 1279, 8-{2-[4-(4-fluoromethyl-4-hydroxy-piperidine-1-carbonyl)-2,6-dimethyl-phenyl]-ethanesulfonyl}-2-[3-(2,2,3,3-tetrafluoro-propoxy)-4-trifluoromethyl-phenyl]-1,3,8-triaza-spiro[4.5]dec-1-en-4-one]
